Measurements published in ChEMBL document CHEMBL1155752, “Isolation and structure of korolkoside, a bis-iridoid glucoside from Lonicera korolkovii” (J Nat Prod, 2001).

Assays:
Mus musculus [1] = assay: Acute toxicity in ddY mouse at 2 mg/mouse, ip assessed as death after 12 hrs; assay type: organism-based; settings: in vivo
Mus musculus [2] = assay: Acute toxicity in ddY mouse at 38 mg/mouse, ip assessed as death after 12 hrs; assay type: organism-based; settings: in vivo

SMILES	Activity (Mus musculus [1])	Activity (Mus musculus [2])
C=C[C@H]1[C@H](O[C@@H]2O[C@H](CO)[C@@H](O)[C@H](O)[C@H]2O)OC=C(C(=O)OC)[C@H]1C[C@@H]1OC[C@H]2O[C@@H](O[C@@H]3OC=C(C(=O)OC)[C@@H](CC(OC)OC)[C@H]3C=C)[C@H](O)[C@@H](O)[C@@H]2O1 [KOROLKOSIDE]	Non-toxic	
C=C[C@H]1[C@H](O[C@@H]2O[C@H](CO)[C@@H](O)[C@H](O)[C@H]2O)OC=C(C(=O)OC)[C@H]1CC(OC)OC [SECOLOGANIN DIMETHYL ACETAL]		Non-toxic
